Measurements from PubChem BioAssay AID256 (DTP/NCI, 2004).
Inconclusive results and toxic doses are left out. Rule for the calls: active = survival T/C of 150% or more; inactive = T/C below 125% in these data.

Test system: CD2F1 mice, L1210 leukemia ip, survival T/C
Test: NCI In Vivo Anticancer Drug Screen. Data for tumor model L1210 Leukemia (intraperitoneal) in CD2F1 (CDF1) mice
Conditions: endpoint: mean survival time, higher = longer survival
In short: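 Vehicle-treated tumor-bearing mice served as controls (C) for compound-treated mice (T). Reported figure is T divided by C.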

[1] = dose: 100.0 mg/kg/injection, schedule: Q04DX003 (ip), vehicle: saline with Tween-80
[2] = dose: 200.0 mg/kg/injection, schedule: Q04DX003 (ip), vehicle: saline with Tween-80
[3] = dose: 400.0 mg/kg/injection, schedule: Q04DX003 (ip), vehicle: saline with Tween-80
[4] = dose: 100.0 mg/kg/injection, schedule: Q04DX003 (ip), vehicle: Klucel (hydroxypropylcellulose) (HPC)
[5] = dose: 200.0 mg/kg/injection, schedule: Q04DX003 (ip), vehicle: Klucel (hydroxypropylcellulose) (HPC)
[6] = dose: 400.0 mg/kg/injection, schedule: Q04DX003 (ip), vehicle: Klucel (hydroxypropylcellulose) (HPC)
[7] = dose: 100.0 mg/kg/injection, schedule: Q01DX009 (ip), vehicle: saline with Tween-80
[8] = dose: 200.0 mg/kg/injection, schedule: Q01DX009 (ip), vehicle: saline with Tween-80
[9] = dose: 400.0 mg/kg/injection, schedule: Q01DX009 (ip), vehicle: saline with Tween-80

Measured: T/C

N#CCCN1c2ccccc2Sc2ccccc21
inactive: dose: 75.0 mg/kg/injection, schedule: Q04DX003 (ip), vehicle: saline 102 % of control | dose: 150.0 mg/kg/injection, schedule: Q04DX003 (ip), vehicle: saline 112 % of control

COC1(c2ccccc2)C(c2ccccc2)=CC(=O)/C1=C\c1ccccc1 (configuration not stated)
inactive: [1] 98 % of control | [2] 91 % of control | [3] 86 % of control

CC1=C/C(=N\N=C2/C=C(C)CC(C)(C)C2)CC(C)(C)C1
inactive: [4] 93 % of control | [5] 91 % of control | [6] 89 % of control

O=c1c2ccccc2c2nccc3c4ccccc4n1c32
inactive: [7] 103 % of control | [1] 102 % of control | [8] 105 % of control | [2] 107 % of control | [9] 100 % of control | [3] 107 % of control

Cc1cc(N)ccc1N(c1c(Cl)c(Cl)c(NS(=O)(=O)c2ccccc2)c(Cl)c1Cl)S(=O)(=O)c1ccccc1
inactive: [4] 95 % of control | [5] 95 % of control | [6] 95 % of control

C=C1CC23CC1(O)CCC2C12C=CCC(C)(C(=O)O1)C2C3C(=O)O (configuration not stated)
inactive: [7] 91 % of control | [8] 95 % of control | [9] 91 % of control

CNC(=S)N(C1CCCCC1)C1CCCCC1
inactive: [1] 111 % of control | [2] 96 % of control | [3] 94 % of control

Cc1ccc(S(=O)(=O)NC2CCC(C(=O)O)CC2)cc1 (configuration not stated)
inactive: dose: 100.0 mg/kg/injection, schedule: Q01DX009 (ip), vehicle: Klucel (hydroxypropylcellulose) (HPC) 103 % of control | dose: 200.0 mg/kg/injection, schedule: Q01DX009 (ip), vehicle: Klucel (hydroxypropylcellulose) (HPC) 103 % of control | dose: 400.0 mg/kg/injection, schedule: Q01DX009 (ip), vehicle: Klucel (hydroxypropylcellulose) (HPC) 92 % of control

O=[N+]([O-])c1ccc(/C=N/O)s1
inactive: dose: 12.5 mg/kg/injection, schedule: Q01DX009 (ip), vehicle: saline with Tween-80 106 % of control | dose: 25.0 mg/kg/injection, schedule: Q01DX009 (ip), vehicle: saline with Tween-80 98 % of control

CCCCCCCC[n+]1cccc(C(=O)c2ccccc2)c1
inactive: dose: 75.0 mg/kg/injection, schedule: Q01DX001 (ip), vehicle: saline 105 % of control

N#CC(C#N)C(O)c1c[nH]c2ccccc12 (configuration not stated)
inactive: dose: 100.0 mg/kg/injection, schedule: Q01DX001 (ip), vehicle: saline with Tween-80 102 % of control | dose: 200.0 mg/kg/injection, schedule: Q01DX001 (ip), vehicle: saline with Tween-80 96 % of control | dose: 400.0 mg/kg/injection, schedule: Q01DX001 (ip), vehicle: saline with Tween-80 94 % of control

OC1c2ccccc2-c2ccc(Cl)cc21 (configuration not stated)
inactive: [1] 94 % of control | [2] 86 % of control | [3] 96 % of control

O=[N+]([O-])c1ccc(/C=C/C=C/c2ccc(Cl)c(S(=O)(=O)F)c2)c(Cl)c1
inactive: [7] 97 % of control | [1] 102 % of control | [8] 103 % of control | [2] 102 % of control | [9] 106 % of control | [3] 102 % of control

COc1nn(O)cc2cc(C(=O)O)nc1-2
inactive: dose: 12.5 mg/kg/injection, schedule: Q04DX002 (ip), vehicle: saline with Tween-80 104 % of control | dose: 25.0 mg/kg/injection, schedule: Q04DX002 (ip), vehicle: saline with Tween-80 104 % of control | dose: 50.0 mg/kg/injection, schedule: Q04DX002 (ip), vehicle: saline with Tween-80 101 % of control

O[Si](c1ccccc1)(c1ccccc1)c1ccccc1
inactive: [1] 102 % of control | [2] 97 % of control | [3] 92 % of control
